In the Deep4Chem optical property database:
One block for each compound: values may come before it.

Assay: solvent given as SMILES
[1] = in c1cc(-c2cccc(-n3c4ccccc4c4ccccc43)c2)cc(-n2c3ccccc3c3ccccc32)c1

SMILES: O=P1(c2ccccc2)c2cccc3c4c5ccccc5c5ccccc5c4c4ccc1n4c23 (stereo not given)
emission maximum (in ClCCl): 490 nm

SMILES: c1ccc(-c2nc(-c3ccccc3)nc(-c3ccc(-c4ccc5c(c4)C4(c6ccccc6-c6ccccc64)c4cc(-c6ccc(-c7nc(-c8ccccc8)nc(-c8ccccc8)n7)cc6)ccc4N5c4ccccc4)cc3)n2)cc1
emission maximum [1]: 469 nm

SMILES: Cc1cc(C(F)(F)F)nc2c1ccc1nc(-c3ccc(F)c(F)c3)cn12
emission maximum (in CC#N): 460 nm | emission maximum (in CCCCCC): 433 nm | emission maximum (in CCCCOC(C)=O): 453 nm | emission maximum (in CCOC(C)=O): 454 nm | emission maximum (in CO): 456 nm | emission maximum (in Cc1ccccc1): 451 nm | emission maximum (in ClC(Cl)Cl): 448 nm | emission maximum (in ClCCl): 451 nm | emission maximum (in c1ccccc1): 450 nm

SMILES: CC1(C)c2ccccc2N(c2ccc(-c3nc(C#N)c(C#N)nc3-c3ccc(N4c5ccccc5C(C)(C)c5ccccc54)cc3)cc2)c2ccccc21
emission maximum (in Cc1ccccc1): 620 nm | emission maximum [1]: 570 nm

SMILES: C[Si](C)(C)C#CC#Cc1ccc2c3cccc4cccc(c5cccc1c52)c43
emission maximum (in C1CCCCC1): 477.08 nm

SMILES: COc1cc2oc(=O)c3c4ccc(C=O)cc4c4ccc5cccc6c(c1)c2c3c4c56
emission maximum (in C1CCOC1): 442 nm

SMILES: O=P1(c2ccccc2)C(c2ccccc2)=Cc2ccccc21 (stereo not given)
emission maximum (in C1CCOC1): 417 nm | emission maximum (in ClCCl): 423 nm

SMILES: F[B-]1(F)n2cccc2C=C2c3ccccc3C(c3ccc[nH]3)=[N+]21
emission maximum (in C1CCOC1): 596 nm | emission maximum (in CC#N): 594 nm | emission maximum (in CCCCCC): 588 nm | emission maximum (in CO): 592 nm | emission maximum (in Cc1ccccc1): 600 nm | emission maximum (in ClCCl): 599 nm

SMILES: N#Cc1nn(-c2ccccc2C(F)(F)F)nc1N1CCCC1
emission maximum (in CC#N): 433 nm

SMILES: Clc1cc(Cl)c(B2c3ccccc3Nc3ccccc32)c(Cl)c1
emission maximum (in ClCCl): 413 nm

SMILES: [BH3-][P+]1(c2ccccc2)c2ccccc2-c2sc3ccccc3c21 (stereo not given)
emission maximum (in C1CCCCC1): 395 nm | emission maximum (in CC#N): 401 nm | emission maximum (in CCO): 400 nm | emission maximum (in ClCCl): 400 nm

SMILES: c1cc2c3c4c5c(cccc5cc3c1)-c1cccn1B4n1cccc1-2
emission maximum (in C1CCOC1): 601 nm

SMILES: CC1(C)C2=C3C=C4C5=[N+](CCC4OC3CCN2c2ccc(CC(=O)NCCCCCCO)cc21)c1ccc(S(=O)(=O)[O-])cc1C5(C)C (stereo not given)
emission maximum (in O): 572 nm

SMILES: F[B-]1(F)n2cccc2C(c2ccccc2)=C2C=CC(c3ccc(OC4=[N+]5C(=C(c6ccccc6)c6cc(Br)c(Br)n6[B-]5(F)F)C=C4Br)cc3)=[N+]21
emission maximum (in ClC(Cl)Cl): 574 nm

SMILES: CCOC(=O)c1c2c3c(ccc(OC)c3c3cc4ccccc4cc13)N(C)C2=O
emission maximum (in CC#N): 413 nm

SMILES: CCC1=C(C)C2=Cc3c4ccccc4c4n3[B-](c3ccccc3)(Oc3ccccc3-4)[N+]2=C1C (stereo not given)
emission maximum (in CC#N): 634 nm | emission maximum (in CCCCCC): 636 nm | emission maximum (in Cc1ccccc1): 640 nm | emission maximum (in ClCCl): 638 nm

SMILES: c1ccc(-c2cc(-c3ccc(N4c5ccccc5C(c5ccccc5)(c5ccccc5)c5ccccc54)cn3)nc(-c3ccccc3)n2)cc1
emission maximum (in Cc1ccccc1): 480 nm | emission maximum (in O=P(c1ccccc1)(c1ccccc1)c1ccccc1Oc1ccccc1P(=O)(c1ccccc1)c1ccccc1): 486 nm

SMILES: CC(C)(C)OC(=O)NC(C(=O)OCc1ccc2c3cccc4cccc(c5cccc1c52)c43)c1c[nH]c2ccccc12 (stereo not given)
emission maximum (in CCO): 447 nm

SMILES: COC(=O)c1ccc(/C=C2\C=C(c3ccccc3)NC2=O)cc1
emission maximum (in C1COCCO1): 544 nm

SMILES: COc1ccc(/C=C/c2ccccc2)cc1OC
emission maximum (in C1CCCCC1): 372 nm | emission maximum (in CC#N): 385 nm | emission maximum (in CC(C)O): 374 nm | emission maximum (in CCCCOCCCC): 375 nm | emission maximum (in CCOC(C)=O): 382 nm | emission maximum (in CCOCC): 373 nm

SMILES: COc1c2ccccc2c(OC)c2c1c1ccc(F)cc1n2C
emission maximum (in C1CCCCC1): 404 nm | emission maximum (in CC#N): 413 nm | emission maximum (in CO): 410 nm | emission maximum (in ClCCl): 411 nm

SMILES: COC(=O)c1cc(=O)n(C)c2cc(-c3ccccc3)sc12
emission maximum (in CC#N): 462 nm | emission maximum (in ClCCl): 462 nm

SMILES: CCCCn1c2ccccc2c2ccc(C#Cc3ccc4ccc5cccc6ccc3c4c56)cc21
emission maximum (in ClCCl): 411 nm

SMILES: CC(C)(C)c1ccc(-c2nnc(-c3c(-n4c5ccccc5c5ccccc54)c(-n4c5ccccc5c5ccccc54)c(-c4nnc(-c5ccc(C(C)(C)C)cc5)o4)c(-n4c5ccccc5c5ccccc54)c3-n3c4ccccc4c4ccccc43)o2)cc1
emission maximum (in Cc1ccccc1): 569 nm | emission maximum (in c1cc(-n2c3ccccc3c3ccccc32)nc(-n2c3ccccc3c3ccccc32)c1): 527 nm

SMILES: Cc1cc(C)c(B(c2cc(-c3ccc(N(C)C)cc3)sc2-c2sc(-c3ccc(N(C)C)cc3)cc2P(=O)(c2ccccc2)c2ccccc2)c2c(C)cc(C)cc2C)c(C)c1
emission maximum (in CO): 645 nm

SMILES: CN(C)c1ccc(C(=Cc2ccc(/C=C/c3ccc(C#N)cc3)cc2)c2ccc(N(C)C)cc2)cc1
emission maximum (in C1CCOC1): 481 nm

Now from value to compound:

emission maximum (in C1COCCO1): 436 nm | emission maximum (in CC#N): 492 nm | emission maximum (in CCCCCCC): 382 nm | emission maximum (in CO): 496 nm
SMILES: C(/C=C/c1ccc(-n2c3ccccc3c3ccccc32)cc1)=C\c1ccncc1

emission maximum (in CC#N): 440 nm | emission maximum (in ClCCl): 448 nm
SMILES: O=c1c2cc(Br)ccc2nc2n1[B-](F)(F)[n+]1ccccc1-2

emission maximum (in ClCCl): 608 nm
SMILES: CN(C)c1ccc(C#Cc2cc(C#Cc3ccc(C(F)(F)F)cc3)c3ccc4c(C#Cc5ccc(C(F)(F)F)cc5)cc(C#Cc5ccc(N(C)C)cc5)c5ccc2c3c54)cc1

emission maximum (in ClC(Cl)Cl): 438 nm
SMILES: C[Si](C)(C)C#C[Si](c1c2ccccc2cc2ccccc12)(c1c2ccccc2cc2ccccc12)c1c2ccccc2cc2ccccc12

emission maximum (in ClCCl): 756 nm
SMILES: Cc1ccc(/N=C2/C3=c4[nH]c5ccccc5c4=[N+](c4ccc(C)cc4)[B-](F)(F)N3c3ccccc32)cc1

emission maximum (in ClC(Cl)Cl): 311 nm
SMILES: c1ccc(-c2ccnc(-c3ccccc3)n2)cc1

emission maximum (in CCO): 596 nm | emission maximum (in O): 603 nm
SMILES: O=C([O-])c1ccc(C(=O)[O-])c(C2=c3cc4c5c(c3Oc3c2cc2c6c3CCCN6CCC2)CCC[N+]=5CCC4)c1

emission maximum (in CCO): 410 nm | emission maximum (in CCOC(C)=O): 404 nm | emission maximum (in CN(C)C=O): 410 nm | emission maximum (in CO): 410 nm | emission maximum (in ClC(Cl)Cl): 408 nm
SMILES: COc1ccc2cc(-c3ccc(S(C)(=O)=O)cc3)oc(=O)c2c1

emission maximum (in CC#N): 412 nm | emission maximum (in CO): 416 nm | emission maximum (in CS(C)=O): 430 nm | emission maximum (in ClC(Cl)Cl): 420 nm
SMILES: O=C1C=CC2=Cc3ccccc3B(O)N12

emission maximum (in CC#N): 417 nm | emission maximum (in CCO): 457 nm
SMILES: CC(=O)c1cc2c(cc1F)NC(C)(C)CC2=O

emission maximum (in ClCCl): 519 nm
SMILES: CCCCCCN1C(=O)c2cccc3c(-c4ccc(-c5cc(-c6ccc(Cl)cc6)nn5-c5ccccc5)s4)ccc(c23)C1=O

emission maximum (in C1COCCO1): 357 nm | emission maximum (in CC#N): 358 nm | emission maximum (in CC(C)O): 360 nm | emission maximum (in CCCCO): 361 nm | emission maximum (in CCO): 360 nm | emission maximum (in CCOC(C)=O): 354 nm | emission maximum (in CN(C)C=O): 366 nm | emission maximum (in CO): 361 nm | emission maximum (in CS(C)=O): 370 nm
SMILES: O=S(=O)([O-])c1ccc(O)c2ccccc12

emission maximum (in ClCCl): 557 nm | emission maximum (in c1ccccc1): 512 nm
SMILES: CCCCN(CCCC)c1ccc(C#Cc2cc(C#Cc3ccc(N(CCCC)CCCC)cc3)c(C#Cc3ccc(C#N)cc3)cc2C#Cc2ccc(C#N)cc2)cc1

emission maximum (in C1CCOC1): 418 nm | emission maximum (in C1COCCO1): 420 nm | emission maximum (in CC#N): 422 nm | emission maximum (in CCCCCO): 432 nm | emission maximum (in CCCCO): 431 nm | emission maximum (in CCCO): 430 nm | emission maximum (in CCO): 432 nm | emission maximum (in CO): 432 nm | emission maximum (in COCCOC): 420 nm | emission maximum (in ClC(Cl)Cl): 428 nm | emission maximum (in ClCCl): 422 nm | emission maximum (in OCCO): 418 nm
SMILES: COC(=O)c1c2ccccc2nc2ccccc12
